Target: T1, human CaV3.2 (Homo sapiens, UniProt O95180)
T1 construct: expressed in transfected cells
Experiment: IonWorks screen for hCaV3.2 (T-type calcium current, voltage clamp)
Format: cell-based
Conditions: IonWorks HT, HEK cells, 10 min incubation, pulse 10, 8-point curve; read-out: IW hCav3 2 IC50
Excerpt: Functional evaluation of voltage-gated ion channels can be used to determine potency and/or single concentration efficacy of the Azetidinone Derivatives of the present invention. Two different methodologies can be used to measure ion currents: the lonWorks HT (Molecular Devices, Sunnyvale, Calif.) a moderate throughput voltage clamp screening platform that utilizes 96-well compound plates and conventional whole cell patch clamp for lower throughput, higher fidelity determinations.
HEK cells are transiently transfected and then selected for stable heterologous expression of different channel proteins of interest. Calcium channel cell lines expressed a resting potassium current, human Kir2.1, and the pore forming α-subunit of voltage-gated calcium channels. In the case of CaV2.1 cells the auxiliary subunit, β2a, is also expressed. Calcium channel lines that are used to generate the data will express either human CaV3.2, rat CaV3.2 or human CaV2.1. The human heart sodium channel, hNaV1.5, are stably expressed in CHO cells.
Cell lines can be grown at 37° C. in humidified incubators, equilibrated with 95% air/5% CO2. CHO cells can be grown in Ham's F-12 medium. HEK cells can be grown in DMEM. All media are supplemented with 10% heat-inactivated fetal bovine serum, penicillin, streptomycin and appropriate selection antibiotics (zeocin, geneticin and/or hygromycin). Cells are passaged when 80% confluent or less.
IonWorks Screen for hCaV3.2
The extracellular buffer for experiments using this instrument contained the following (mM) (NaCl 125, HEPES 10, KCl 5.4, CaCl2 1.8, MgCl2 1.8, 0.2 BaCl2 pH 7.35). The lonWorks uses amphotericin to gain electrical access to the cell interior. The internal solution contained (mM concentrations): 130 K-gluconate, 20 KCl, 5 HEPES-KOH (pH 7.25), 2 CaCl2, 1 MgCl2. Amphotericin added at 5 mg in 65 mL when present (in 650 μL DMSO). All internal and external solutions for this experiment contain 1% DMSO. Cells were acutely trypsinized from a T-75 flask and resuspended in extracellular buffer at a density of 2×10^5 cells/mL.
Experiments were performed at room temperature. Transmembrane potential was held at −100 mV for 5 seconds prior to running the voltage protocol. During this time leak currents were measured during a step to −110 mV (200 milliseconds). T-type calcium currents were activated with a 250 millisecond step to −20 mV. This depolarization step was repeated for a total of 10 pulses with an interpulse interval of 1 second. Data were excluded if the following acceptance criteria were not met: total resistance for the pre-compound scan>65 MΩ, pre-compound current>250 pA, post compound total resistance>50 MΩ.
T-type currents were measured as the peak inward current minus the current at the end of the 250 msec step to −20 mV. After the recoding configuration was established there was a pre-compound measurement of current amplitude. Compound was added as a 3× solution containing 1% DMSO. After incubation with compound for 10 minutes currents were measured again. The current amplitude after compound addition was divided by the pre-compound current for pulse 10 to determine the fraction of current remaining after compound addition. For each compound, 8-point concentration-effect relationships were measured with ½ log serial dilutions.

T1 sequence (O95180 whole entry): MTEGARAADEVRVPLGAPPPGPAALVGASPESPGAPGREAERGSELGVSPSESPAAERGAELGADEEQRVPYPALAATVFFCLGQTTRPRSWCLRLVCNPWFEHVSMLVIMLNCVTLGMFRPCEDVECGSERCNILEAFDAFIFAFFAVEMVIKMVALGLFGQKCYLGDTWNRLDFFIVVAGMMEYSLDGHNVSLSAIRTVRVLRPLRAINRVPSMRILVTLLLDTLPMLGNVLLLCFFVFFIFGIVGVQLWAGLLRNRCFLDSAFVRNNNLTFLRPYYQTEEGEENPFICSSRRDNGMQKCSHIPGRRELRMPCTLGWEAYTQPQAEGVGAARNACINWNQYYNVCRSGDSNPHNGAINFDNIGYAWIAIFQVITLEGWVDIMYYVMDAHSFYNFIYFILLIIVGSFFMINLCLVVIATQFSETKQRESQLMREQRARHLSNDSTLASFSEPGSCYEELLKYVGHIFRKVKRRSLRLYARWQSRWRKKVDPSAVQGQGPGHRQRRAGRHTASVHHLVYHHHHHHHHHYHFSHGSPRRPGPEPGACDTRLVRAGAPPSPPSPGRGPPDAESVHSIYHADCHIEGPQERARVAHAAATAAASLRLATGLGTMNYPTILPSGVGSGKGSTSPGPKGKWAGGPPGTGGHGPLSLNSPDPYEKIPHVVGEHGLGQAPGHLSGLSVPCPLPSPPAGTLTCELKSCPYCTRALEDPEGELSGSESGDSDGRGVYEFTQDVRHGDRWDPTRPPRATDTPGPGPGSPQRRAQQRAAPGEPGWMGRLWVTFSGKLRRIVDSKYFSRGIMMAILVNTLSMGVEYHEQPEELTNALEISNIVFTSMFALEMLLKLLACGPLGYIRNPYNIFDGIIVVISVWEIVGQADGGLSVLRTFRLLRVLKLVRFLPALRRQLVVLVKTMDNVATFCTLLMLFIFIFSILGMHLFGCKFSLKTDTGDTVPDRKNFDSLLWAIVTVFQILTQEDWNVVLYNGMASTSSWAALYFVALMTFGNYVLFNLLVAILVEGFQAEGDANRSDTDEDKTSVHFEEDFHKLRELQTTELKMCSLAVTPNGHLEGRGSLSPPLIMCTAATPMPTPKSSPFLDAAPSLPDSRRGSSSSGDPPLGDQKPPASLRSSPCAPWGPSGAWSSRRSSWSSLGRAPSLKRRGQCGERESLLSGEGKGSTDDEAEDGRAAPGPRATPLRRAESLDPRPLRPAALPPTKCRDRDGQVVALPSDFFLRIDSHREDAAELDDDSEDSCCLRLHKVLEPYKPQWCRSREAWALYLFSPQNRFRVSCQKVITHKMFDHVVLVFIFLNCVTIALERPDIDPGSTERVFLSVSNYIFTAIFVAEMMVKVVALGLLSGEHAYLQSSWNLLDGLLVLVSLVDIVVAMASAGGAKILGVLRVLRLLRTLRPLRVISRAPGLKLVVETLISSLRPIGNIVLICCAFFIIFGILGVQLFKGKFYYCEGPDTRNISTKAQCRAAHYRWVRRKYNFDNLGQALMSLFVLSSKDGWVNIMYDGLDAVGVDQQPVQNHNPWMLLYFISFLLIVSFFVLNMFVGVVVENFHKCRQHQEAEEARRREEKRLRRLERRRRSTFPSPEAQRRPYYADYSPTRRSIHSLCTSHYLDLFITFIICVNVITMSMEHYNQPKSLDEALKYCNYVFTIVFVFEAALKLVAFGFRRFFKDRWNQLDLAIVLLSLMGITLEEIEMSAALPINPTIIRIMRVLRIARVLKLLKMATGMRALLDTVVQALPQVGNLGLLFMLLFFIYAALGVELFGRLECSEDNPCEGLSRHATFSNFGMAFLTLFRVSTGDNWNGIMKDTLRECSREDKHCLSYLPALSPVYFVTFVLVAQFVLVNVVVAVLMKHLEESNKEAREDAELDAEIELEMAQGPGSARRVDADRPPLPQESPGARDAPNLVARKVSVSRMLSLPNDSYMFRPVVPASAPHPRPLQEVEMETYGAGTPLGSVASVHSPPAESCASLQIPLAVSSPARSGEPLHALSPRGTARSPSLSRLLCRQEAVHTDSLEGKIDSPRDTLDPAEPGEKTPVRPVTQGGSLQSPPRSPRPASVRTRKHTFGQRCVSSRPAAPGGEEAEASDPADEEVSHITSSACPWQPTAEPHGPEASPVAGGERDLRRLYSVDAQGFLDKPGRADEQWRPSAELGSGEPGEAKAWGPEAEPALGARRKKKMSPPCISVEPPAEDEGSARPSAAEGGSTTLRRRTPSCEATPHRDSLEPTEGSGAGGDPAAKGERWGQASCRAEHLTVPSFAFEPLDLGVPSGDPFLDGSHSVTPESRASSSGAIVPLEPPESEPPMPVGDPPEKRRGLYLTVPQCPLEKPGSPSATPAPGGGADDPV

Row | Compound | IC50
1 | O=C(Nc1cc(F)cc(F)c1)N1CCC2(CC1)C(=O)N(c1cccc(Cl)c1)C2c1cccc[n+]1O (stereo not drawn) | 157 nM
2 | N#Cc1cccc(N2C(=O)C3(CCN(C(=O)Nc4cccc(C(F)(F)F)c4)CC3)C2c2ccccn2)c1 (stereo not drawn) [drawing 567] | 371 nM
3 | CC[C@H](C)[C@H](NC(=O)N1CCC2(CC1)C(=O)N(C(C)C)C2c1ccc(Br)cc1)C(=O)OC (stereo partly drawn) | 277 nM
4 | CCC(C)[C@H](NC(=O)N1CCC2(CC1)C(=O)N(c1ccc(F)c(Cl)c1)C2c1ccc(C#N)cn1)C(=O)OC (stereo partly drawn) | 260 nM
5 | C[C@H](NC(=O)N1CCC2(CC1)C(=O)N(c1cncnc1)C2c1cccnc1)c1ccc(F)cc1 (stereo partly drawn) | 2590 nM
6 | O=C(Nc1cc(F)cc(F)c1)N1CCC2(CC1)C(=O)N(c1ccccn1)C2c1ccccn1 (stereo not drawn) | 1160 nM
7 | O=C(Nc1cccc(C(F)(F)F)c1)N1CCC2(CC1)C(=O)N(c1cncc(Cl)c1)C2c1ccccn1 (stereo not drawn) [drawing 562] | 155 nM
8 | CCC(C)[C@H](NC(=O)N1CCC2(CC1)C(=O)N(c1ccc(F)c(Cl)c1)C2c1ccc(-c2ccccc2)cn1)C(=O)OC (stereo partly drawn) | 84 nM
9 | N#Cc1cccc(NC(=O)N2CCC3(CC2)C(=O)N(c2cccc(C#N)c2)C3c2ccccn2)c1 (stereo not drawn) [drawing 594] | 1170 nM
10 | N#Cc1cccc(N2C(=O)C3(CCN(C(=O)Nc4cc(F)cc(F)c4)CC3)C2c2ccccn2)c1 (stereo not drawn) [drawing 586] | 247 nM
11 | N#Cc1cccc(NC(=O)N2CCC3(CC2)C(=O)N(c2cncc(Cl)c2)C3c2ccccn2)c1 (stereo not drawn) | 1480 nM
12 | O=C(Nc1cccnc1)N1CCC2(CC1)C(=O)N(c1cccc(Cl)c1)C2c1ccccn1 (stereo not drawn) | 1120 nM
13 | N#Cc1cncc(N2C(=O)C3(CCN(C(=O)Nc4cc(F)cc(F)c4)CC3)C2c2ccccn2)c1 (stereo not drawn) | 2380 nM
14 | O=C(Nc1cc(F)cc(F)c1)N1CCC2(CC1)C(=O)N(c1cncc(Cl)c1)C2c1ccccn1 (stereo not drawn) | 518 nM
15 | CCC(C)[C@H](NC(=O)N1CCC2(CC1)C(=O)N(c1ccc(F)c(Cl)c1)C2c1ccc(-c2ccncc2)cn1)C(=O)OC (stereo partly drawn) | 634 nM
16 | N#Cc1cccc(NC(=O)N2CCC3(CC2)C(=O)N(c2cccc(C#N)c2)C3c2ccccn2)c1 (stereo not drawn) [drawing 593] | 2910 nM
17 | O=C(Nc1cccc(Cl)c1)N1CCC2(CC1)C(=O)N(c1ccc(F)c(Cl)c1)C2c1ccccn1 (stereo not drawn) | 185 nM
18 | N#Cc1cccc(NC(=O)N2CCC3(CC2)C(=O)N(c2cccc(Cl)c2)C3c2cccnc2)c1 (stereo not drawn) [drawing 643] | 1660 nM
19 | CC[C@H](C)[C@H](NC(=O)N1CCC2(CC1)C(=O)N(c1cccc(Cl)c1)C2c1ccccn1)C(=O)OC (stereo partly drawn) [drawing 571] | 584 nM

Row | Compound | IC50
20 | O=C(Nc1cccc(C(F)(F)F)c1)N1CCC2(CC1)C(=O)N(c1ccc(F)c(Cl)c1)C2c1ccccn1 (stereo not drawn) [drawing 560] | 4.33 nM
21 | CS(=O)(=O)c1ccccc1N1C(=O)C2(CCN(C(=O)Nc3cc(F)cc(F)c3)CC2)C1c1ccc(Cl)cc1 (stereo not drawn) | 94 nM
22 | O=C(Nc1cccc(C(F)(F)F)c1)N1CCC2(CC1)C(=O)N(c1cccc(Cl)c1)C2c1ccccn1 (stereo not drawn) [drawing 564] | 19.5 nM
23 | N#Cc1cc(F)cc(NC(=O)N2CCC3(CC2)C(=O)N(c2ccc(F)c(Cl)c2)C3c2ccccn2)c1 (stereo not drawn) [drawing 565] | 17.5 nM
24 | CCC(C)[C@H](NC(=O)N1CCC2(CC1)C(=O)N(c1ccc(F)c(Cl)c1)C2c1ccc(Br)cn1)C(=O)OC (stereo partly drawn) | 100 nM
25 | N#Cc1cccc(N2C(=O)C3(CCN(C(=O)Nc4cc(F)cc(F)c4)CC3)C2c2ccccn2)c1 (stereo not drawn) [drawing 585] | 732 nM
26 | O=C(Nc1cccc(F)c1)N1CCC2(CC1)C(=O)N(c1ccc(F)c(Cl)c1)C2c1ccccn1 (stereo not drawn) | 371 nM
27 | O=C(Nc1cccc(C(F)(F)F)c1)N1CCC2(CC1)C(=O)N(c1cccc(Cl)c1)C2c1ccccn1 (stereo not drawn) [drawing 563] | 95.5 nM
28 | N#Cc1cncc(N2C(=O)C3(CCN(C(=O)Nc4cccc(C(F)(F)F)c4)CC3)C2c2ccccn2)c1 (stereo not drawn) | 1260 nM
29 | CC[C@H](C)[C@H](NC(=O)N1CCC2(CC1)C(=O)N(c1cccc(Cl)c1)C2c1cccnc1)C(=O)OC (stereo partly drawn) [drawing 641] | 1300 nM
30 | C[C@H](NC(=O)N1CCC2(CC1)C(=O)N(c1cncnc1)C2c1ccccn1)c1ccc(F)cc1 (stereo partly drawn) | 2010 nM
31 | CC[C@H](C)[C@H](NC(=O)N1CCC2(CC1)C(=O)N(c1cccc(Cl)c1)C2c1cccnc1)C(=O)OC (stereo partly drawn) [drawing 640] | 880 nM
32 | C[C@H](NC(=O)N1CCC2(CC1)C(=O)N(c1ccc(F)c(Cl)c1)C2c1ccc(Br)cn1)c1ccc(F)cc1 (stereo partly drawn) | 136 nM
33 | N#Cc1cccc(NC(=O)N2CCC3(CC2)C(=O)N(c2ccc(F)c(Cl)c2)C3c2ccccn2)c1 (stereo not drawn) | 358 nM
34 | CC[C@H](C)[C@H](NC(=O)N1CCC2(CC1)C(=O)N(c1cccc(Cl)c1)C2c1ccccn1)C(=O)OC (stereo partly drawn) [drawing 572] | 635 nM
35 | N#Cc1cccc(N2C(=O)C3(CCN(C(=O)Nc4cccc(C(F)(F)F)c4)CC3)C2c2ccccn2)c1 (stereo not drawn) [drawing 568] | 51 nM
36 | CC[C@H](C)[C@H](NC(=O)N1CCC2(CC1)C(=O)N(c1cncnc1)C2c1ccccn1)C(=O)OC (stereo partly drawn) | 2610 nM
37 | O=C(Nc1cc(F)cc(F)c1)N1CCC2(CC1)C(=O)N(c1cccc(Cl)c1)C2c1cccnc1 (stereo not drawn) [drawing 635] | 21 nM
38 | CCC(C)[C@H](NC(=O)N1CCC2(CC1)C(=O)N(c1ccc(F)c(Cl)c1)C2c1ccc(-c2cccnc2)cn1)C(=O)OC (stereo partly drawn) | 577 nM

The next lines start with the values.

Row | IC50 | Compound
39 | 965 nM | CC[C@H](C)[C@H](NC(=O)N1CCC2(CC1)C(=O)N(c1cccc(F)c1)C2c1ccc(Cl)cc1)C(N)=O (stereo partly drawn)
40 | 57 nM | CC[C@H](C)[C@H](NC(=O)N1CCC2(CC1)C(=O)N(c1cccc(F)c1)C2c1ccc(Cl)cc1)C(=O)OC (single isomer, unassigned)
41 | 827 nM | COC(=O)[C@H](C)NC(=O)N1CCC2(CC1)C(=O)N(c1cccc(F)c1)C2c1ccc(Cl)cc1 (stereo partly drawn)
42 | 351 nM | C[C@@H](NC(=O)N1CCC2(CC1)C(=O)N(c1cccc(F)c1)C2c1ccc(Cl)cc1)c1ccccc1 (stereo partly drawn)
43 | 2330 nM | C[C@H](NC(=O)N1CCC2(CC1)C(=O)N(c1cncnc1)C2c1ccc(Cl)cc1)c1ccc(F)cc1 (stereo partly drawn)
44 | 183 nM | N#Cc1cccc(NC(=O)N2CCC3(CC2)C(=O)N(c2cccc(F)c2)C3c2ccc(Cl)cc2)c1 (single isomer, unassigned)
45 | 3240 nM | C[C@H](NC(=O)N1CCC2(CC1)C(=O)N(c1cncc(Cl)c1)C2c1ccccn1)c1ccc(F)cc1 (stereo partly drawn)
46 | 745 nM | CC(NC(=O)N1CCC2(CC1)C(=O)N(c1cccc(Cl)c1)C2c1ccccn1)c1ccc(F)cc1 (stereo not drawn) [drawing 575]
47 | 139 nM | C[C@H](NC(=O)N1CCC2(CC1)C(=O)N(c1cccc(F)c1)C2c1ccc(Cl)cc1)c1ccccc1 (stereo partly drawn)
48 | 1830 nM | CC(C)CN1C(=O)C2(CCN(C(=O)N[C@@H](C)c3ccc(F)cc3)CC2)C1c1ccc(Cl)cc1 (stereo partly drawn)
49 | 675 nM | C[C@@H](NC(=O)N1CCC2(CC1)C(=O)N(c1cccc(F)c1)C2c1ccc(Cl)cc1)c1ccc(F)cc1 (stereo partly drawn)
50 | 224 nM | CC[C@H](NC(=O)N1CCC2(CC1)C(=O)N(c1cccc(F)c1)C2c1ccc(Cl)cc1)c1ccccc1 (stereo partly drawn)
51 | 35 nM | CC[C@H](C)[C@@H](C#N)NC(=O)N1CCC2(CC1)C(=O)N(c1cccc(F)c1)C2c1ccc(Cl)cc1 (stereo partly drawn)
52 | 251 nM | COC(=O)[C@H](COC(C)(C)C)NC(=O)N1CCC2(CC1)C(=O)N(c1cccc(F)c1)C2c1ccc(Cl)cc1 (stereo partly drawn)
53 | 611 nM | C[C@H](NC(=O)N1CCC2(CC1)C(=O)N(c1ccccc1S(C)(=O)=O)C2c1ccc(Cl)cc1)c1ccc(F)cc1 (stereo partly drawn)
54 | 191 nM | CC(NC(=O)N1CCC2(CC1)C(=O)N(c1cccc(Cl)c1)C2c1ccccn1)c1ccc(F)cc1 (stereo not drawn) [drawing 576]
55 | 694 nM | CC(NC(=O)N1CCC2(CC1)C(=O)N(c1cccc(F)c1)C2c1ccc(Cl)cc1)c1ccncc1 (stereo not drawn)
56 | 82 nM | C[C@H](NC(=O)N1CCC2(CC1)C(=O)N(c1cccc(F)c1)C2c1ccc(Cl)cc1)c1ccc(F)cc1 (stereo partly drawn)
57 | 538 nM | O=C(NCc1cccc(F)c1)N1CCC2(CC1)C(=O)N(c1cccc(F)c1)C2c1ccc(Cl)cc1 (stereo not drawn)
58 | 225 nM | C[C@H](NC(=O)N1CCC2(CC1)C(=O)N(c1cccc(Cl)c1)C2c1cccnc1)c1ccc(F)cc1 (stereo partly drawn) [drawing 611]
59 | 1330 nM | O=C(NCc1ccccn1)N1CCC2(CC1)C(=O)N(c1cccc(F)c1)C2c1ccc(Cl)cc1 (stereo not drawn)
60 | 2460 nM | CC(NC(=O)N1CCC2(CC1)C(=O)N(c1cccc(F)c1)C2c1ccc(Cl)cc1)c1cccnc1 (stereo not drawn)

Source: patent US20080076751A1, “Azetidinone Derivatives and Methods of Use Thereof” (priority 2006, published 2008)
